Data reported in PMC10590419, “Structural and mechanistic insights into the inhibition of respiratory syncytial virus polymerase by a non-nucleoside inhibitor” (Communications Biology, 2023).
Where “and” joins values, the source holds several entries; their conditions need not be identical. Equal entries are not always repeated. Where two headings read alike, the source gives them in different places.

Columns and labels:
[1] = target: T1, Human DNA polymerase beta (Homo sapiens, UniProt P06746); experiment: DNA-dependent DNA polymerase activity; type: biochemical; settings: DNA Pol β
T1 construct: purchased CHIMERx
Procedure: (§1) to the method described previously 1. A 25 nM solution of RSV MTase-CTD protein or RSV L+P complex was incubated with 0.7 µM or 1.8 µM purified synthetic RNA 5’-Gppp […]
(§2) […] (RSV9) for the MTase-CTD or L+P complex, respectively; 2 µM or 0.17 µM S-adenosyl methionine (SAM) for the MTase-CTD or L–P complex, respectively; and 0.1 µM or 0.8 µM 3H-SAM (Perkin Elmer) for the MTase-CTD or L–P complex, respectively; in 50 mM Tris-HCl pH 8.0. Compounds, previously dissolved in DMSO were added at a final concentration of 50 µM or 200 µM. After 3 h incubation at 30°C, reactions were quenched by a 20-fold dilution in ice cold water. Samples were transferred to DEAE filtermats (Perkin Elmer) using a Filtermat Harvester (Packard Instruments). The RNA-retaining mats were washed twice with 10 mM ammonium formate pH 8.0, twice with water and once with ethanol. They were then soaked with scintillation fluid (Perkin Elmer), and 3H-methyl transfer to the RNA substrates was determined using a Wallac MicroBeta TriLux Liquid Scintillation Counter.
Cellular polymerase assays
DNA-dependant DNA polymerase (DdDp) activity
(§3) Human DNA polymerases alpha (CHIMERx) at 5 U/ml, beta (CHIMERx) at 0.5 U/ml and gamma (Abcam) at 0.1 mg/ml were incubated with the tested inhibitors at specified concentrations, and a reaction mix composed of 62 µg/ml activated calf thymus DNA, dGTP (2 µM), dATP (2 µM), dCTP (2 µM), [ 3H]dTTP (0.05 µCi/µl), 0.1 mg/ml BSA and a buffer composed of Tris-HCl pH 8 (50 mM), MgCl 2 (5 mM), KCl (60 mM), and DTT (4 mM.) in a total volume of 50 µl. After 2 hours incubation at 30°C, reaction was terminated by addition of 60 µl of a chilled stop solution composed of 20% (w/v) TCA with 0.5 mM ATP. […] Radioactivity was measured via liquid scintillation counting (MicroScint-20, 40µl) on a TriLux apparatus. […]
The RNA transcription activity of human mitochondrial RNA polymerase (POLRMT) was measured by the incorporation of radioactively labeled nucleotides by POLRMT into acid-insoluble RNA products as described previously 2. […]

[2] = target: human mitochondrial RNA polymerase (POLRMT) (Homo sapiens, UniProt O00411); experiment: Mitochondrial RNA polymerase DdRp activity; type: biochemical
Procedure: as §1
as §2, with “Samples were transferred to DEAE filtermats (Perkin Elmer) using a Filtermat Harvester (Packard Instruments). The RNA-retaining mats were washed twice with 10 mM ammonium formate pH 8.0, twice with water and once with ethanol.” left out, “Counter. […]” for “Counter.”
as §3, with “µl.” for “µl. After 2 hours incubation at 30°C, reaction was terminated by addition of 60 µl of a chilled stop solution composed of 20% (w/v) TCA with 0.5 mM ATP.”

Human RNA polymerase II = Human RNA polymerase II (Homo sapiens, UniProt P24928+P30876); experiment: RNA polymerase II DdRp activity (HeLa nuclear extract); type: biochemical; settings: RNA Pol II
[3] = test system: rVSV (Indiana strain-derived, luciferase reporter); experiment: microbe, parasite or virus in culture; type: cell-based, vesicular stomatitis virus
RSV L+P complex [4] = target: T2, RSV L+P complex (Human respiratory syncytial virus A, UniProt P28887); type: biochemical; settings: for MTase activity, RNA+compound+RSV L+P, CPM: three technical replicates
RSV MTase-CTD protein = RSV MTase-CTD protein (Human respiratory syncytial virus A, UniProt P28887); experiment: Methyltransferase filter-binding assay; type: biochemical; settings: for MTase activity, RNA+compound+RSV MTase-CTD, CPM: three technical replicates
RSV L+P complex [5] = target: T2, RSV L+P complex; experiment: Thermal shift assay (Prometheus NT.48); type: binding, Human RSV (strain A2); settings: read-out: increase in melting temperature (Tm)
[6] = test system: rgRSV224 (RSV A2 reporter virus); experiment: Inhibition of rgRSV224 reporter RSV in HeLa cells (GFP); settings: human respiratory syncytial virus, 72 h, read-out: Median EC50

Chain of RSV MTase-CTD protein (P28887 1755-2165): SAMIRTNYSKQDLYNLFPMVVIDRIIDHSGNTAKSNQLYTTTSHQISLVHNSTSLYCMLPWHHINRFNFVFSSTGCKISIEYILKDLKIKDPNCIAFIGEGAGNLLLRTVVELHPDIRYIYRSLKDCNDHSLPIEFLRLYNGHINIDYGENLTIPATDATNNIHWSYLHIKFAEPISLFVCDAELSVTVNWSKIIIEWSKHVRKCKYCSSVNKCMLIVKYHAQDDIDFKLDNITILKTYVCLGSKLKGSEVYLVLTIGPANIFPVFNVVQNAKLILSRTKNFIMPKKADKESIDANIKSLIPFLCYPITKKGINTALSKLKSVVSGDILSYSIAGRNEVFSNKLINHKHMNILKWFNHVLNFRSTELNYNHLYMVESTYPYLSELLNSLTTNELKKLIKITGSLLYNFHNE
T2 sequence (P03421 whole entry): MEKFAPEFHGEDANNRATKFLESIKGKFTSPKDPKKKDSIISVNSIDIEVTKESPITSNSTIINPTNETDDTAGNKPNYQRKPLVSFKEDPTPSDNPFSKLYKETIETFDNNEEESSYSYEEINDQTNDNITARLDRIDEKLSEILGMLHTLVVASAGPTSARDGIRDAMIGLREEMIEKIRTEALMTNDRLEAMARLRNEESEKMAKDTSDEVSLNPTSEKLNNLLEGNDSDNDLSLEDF
T2 sequence (P28887 whole entry): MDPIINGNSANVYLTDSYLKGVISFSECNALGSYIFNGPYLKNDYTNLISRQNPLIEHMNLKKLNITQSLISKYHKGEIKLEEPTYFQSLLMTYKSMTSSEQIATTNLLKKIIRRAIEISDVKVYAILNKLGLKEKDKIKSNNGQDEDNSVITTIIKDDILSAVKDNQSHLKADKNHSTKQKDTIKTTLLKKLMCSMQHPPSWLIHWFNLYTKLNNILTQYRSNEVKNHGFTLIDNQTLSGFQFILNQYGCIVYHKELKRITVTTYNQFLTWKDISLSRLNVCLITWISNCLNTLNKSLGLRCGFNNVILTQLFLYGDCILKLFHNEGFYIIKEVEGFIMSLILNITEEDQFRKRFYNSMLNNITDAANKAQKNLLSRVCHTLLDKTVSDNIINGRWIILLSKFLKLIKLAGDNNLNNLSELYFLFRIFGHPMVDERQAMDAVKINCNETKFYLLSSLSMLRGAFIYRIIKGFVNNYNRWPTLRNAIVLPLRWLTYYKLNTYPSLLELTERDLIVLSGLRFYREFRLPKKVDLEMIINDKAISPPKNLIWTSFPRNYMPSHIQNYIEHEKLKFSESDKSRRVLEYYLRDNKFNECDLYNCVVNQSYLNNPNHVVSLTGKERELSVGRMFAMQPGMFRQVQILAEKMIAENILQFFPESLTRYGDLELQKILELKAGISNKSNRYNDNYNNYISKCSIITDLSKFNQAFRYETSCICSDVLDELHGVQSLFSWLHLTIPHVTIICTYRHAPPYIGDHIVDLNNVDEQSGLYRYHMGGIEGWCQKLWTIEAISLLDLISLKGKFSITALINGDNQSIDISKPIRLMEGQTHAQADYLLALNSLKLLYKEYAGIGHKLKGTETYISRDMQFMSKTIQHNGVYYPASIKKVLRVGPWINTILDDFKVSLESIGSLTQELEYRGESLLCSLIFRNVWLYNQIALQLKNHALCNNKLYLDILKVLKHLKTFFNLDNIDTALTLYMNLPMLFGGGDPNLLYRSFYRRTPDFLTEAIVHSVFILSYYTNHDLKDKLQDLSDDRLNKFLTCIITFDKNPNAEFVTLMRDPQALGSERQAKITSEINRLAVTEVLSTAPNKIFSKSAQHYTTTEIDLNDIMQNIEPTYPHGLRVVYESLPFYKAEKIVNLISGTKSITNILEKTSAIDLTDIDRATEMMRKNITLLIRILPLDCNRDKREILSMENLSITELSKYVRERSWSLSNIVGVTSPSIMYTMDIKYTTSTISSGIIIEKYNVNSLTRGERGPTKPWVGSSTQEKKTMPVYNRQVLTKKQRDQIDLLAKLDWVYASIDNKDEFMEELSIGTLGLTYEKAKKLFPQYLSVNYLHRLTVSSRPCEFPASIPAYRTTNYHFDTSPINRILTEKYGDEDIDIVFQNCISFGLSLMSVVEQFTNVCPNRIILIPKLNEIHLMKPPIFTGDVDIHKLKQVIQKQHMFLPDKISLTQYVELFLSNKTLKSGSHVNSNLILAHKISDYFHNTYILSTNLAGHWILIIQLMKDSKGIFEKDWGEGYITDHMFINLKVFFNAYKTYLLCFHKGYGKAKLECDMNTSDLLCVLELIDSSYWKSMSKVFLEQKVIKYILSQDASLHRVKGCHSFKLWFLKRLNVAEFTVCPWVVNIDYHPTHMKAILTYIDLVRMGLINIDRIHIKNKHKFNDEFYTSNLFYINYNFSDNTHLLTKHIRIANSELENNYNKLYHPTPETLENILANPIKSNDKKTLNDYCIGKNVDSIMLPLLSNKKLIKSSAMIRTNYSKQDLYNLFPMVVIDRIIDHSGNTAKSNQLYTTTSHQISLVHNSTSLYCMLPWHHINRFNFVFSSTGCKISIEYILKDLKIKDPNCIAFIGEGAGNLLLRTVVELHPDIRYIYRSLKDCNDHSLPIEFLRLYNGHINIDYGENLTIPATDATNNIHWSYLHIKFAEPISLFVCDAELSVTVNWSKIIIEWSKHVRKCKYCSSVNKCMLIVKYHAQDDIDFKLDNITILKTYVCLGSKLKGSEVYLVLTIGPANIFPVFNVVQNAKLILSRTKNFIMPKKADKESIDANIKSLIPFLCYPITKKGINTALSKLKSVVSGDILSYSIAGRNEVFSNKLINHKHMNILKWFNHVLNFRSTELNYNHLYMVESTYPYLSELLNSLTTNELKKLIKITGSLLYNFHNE
Chain of human mitochondrial RNA polymerase (POLRMT) (O00411 42-1230): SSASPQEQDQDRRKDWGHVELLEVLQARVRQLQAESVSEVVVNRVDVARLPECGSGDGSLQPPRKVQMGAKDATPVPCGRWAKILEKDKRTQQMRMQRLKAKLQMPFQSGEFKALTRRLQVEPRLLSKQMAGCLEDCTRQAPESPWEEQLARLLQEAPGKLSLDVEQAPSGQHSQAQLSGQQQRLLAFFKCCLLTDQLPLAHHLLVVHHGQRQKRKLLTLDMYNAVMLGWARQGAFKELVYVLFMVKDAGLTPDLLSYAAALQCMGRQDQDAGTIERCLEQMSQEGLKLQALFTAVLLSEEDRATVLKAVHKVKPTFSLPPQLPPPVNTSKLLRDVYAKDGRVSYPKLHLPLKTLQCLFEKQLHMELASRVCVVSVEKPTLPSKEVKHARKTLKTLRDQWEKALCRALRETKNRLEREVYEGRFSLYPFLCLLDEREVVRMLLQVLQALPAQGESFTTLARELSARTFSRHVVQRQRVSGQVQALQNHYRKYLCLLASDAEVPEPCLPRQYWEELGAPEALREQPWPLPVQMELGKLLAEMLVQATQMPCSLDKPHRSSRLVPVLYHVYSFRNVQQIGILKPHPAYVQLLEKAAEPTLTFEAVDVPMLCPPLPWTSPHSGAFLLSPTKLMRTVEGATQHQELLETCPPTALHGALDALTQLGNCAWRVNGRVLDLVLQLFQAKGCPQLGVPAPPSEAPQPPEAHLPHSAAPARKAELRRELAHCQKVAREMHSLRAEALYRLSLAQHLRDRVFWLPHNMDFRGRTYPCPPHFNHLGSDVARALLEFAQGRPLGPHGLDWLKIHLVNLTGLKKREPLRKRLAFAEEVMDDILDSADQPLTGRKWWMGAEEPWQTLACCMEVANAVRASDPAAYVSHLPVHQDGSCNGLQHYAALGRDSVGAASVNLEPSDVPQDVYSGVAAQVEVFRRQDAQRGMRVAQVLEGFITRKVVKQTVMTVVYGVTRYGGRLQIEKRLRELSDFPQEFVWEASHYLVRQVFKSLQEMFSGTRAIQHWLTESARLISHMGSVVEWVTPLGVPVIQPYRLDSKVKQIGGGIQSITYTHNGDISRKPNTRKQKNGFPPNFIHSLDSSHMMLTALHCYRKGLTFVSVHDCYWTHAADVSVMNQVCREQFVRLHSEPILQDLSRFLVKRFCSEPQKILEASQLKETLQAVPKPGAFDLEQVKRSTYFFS

## COc1cc(C(=O)NC[C@](O)(c2cc(C(C)(C)O)c(F)c(-c3ccc(F)cc3)n2)C(F)(F)F)cc2cc(C)nnc12 [JNJ-8003]
[1]
  IC50: > 100 µM
[2]
  IC50: > 100 µM
Human RNA polymerase II
  IC50: > 100 µM
[3]
  inhibition (in words): negligible inhibition
[3]; Vesicular stomatitis virus, A549, read-out: Median EC50
  EC50: > 25 µM
RSV L+P complex [4]; 50 uM
  MTase activity, RNA+compound+RSV L+P, CPM: 23422 CPM and 23466 CPM and 23927 CPM
RSV L+P complex [4]; 200 uM
  MTase activity, RNA+compound+RSV L+P, CPM: 14871 CPM and 15721 CPM and 15503 CPM
RSV L+P complex [4]; full-length RSV L+P
  impact on MTase activity (in words): no impact
RSV MTase-CTD protein; 50 uM
  MTase activity, RNA+compound+RSV MTase-CTD, CPM: 32508 CPM and 30594 CPM and 30169 CPM
RSV MTase-CTD protein; 200 uM
  MTase activity, RNA+compound+RSV MTase-CTD, CPM: 26082 CPM and 22767 CPM and 27924 CPM
RSV MTase-CTD protein; recombinant MTase-CTD fragment
  impact on MTase activity (in words): no impact
RSV L+P complex [5]
  ΔTm at 25 µM: 6 °C
[6]
  EC50: 0.00078 µM
